Common to all, as to type: functional
Experiment [1] concerns the target T1, Sentrin-specific protease 6 (Homo sapiens, UniProt Q9GZR1).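 Further: Luminescence-based dose-response confirmatory assay of SENP6 inhibition, following up an ultra-high-throughput screen.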
T1 sequence (Q9GZR1 whole entry): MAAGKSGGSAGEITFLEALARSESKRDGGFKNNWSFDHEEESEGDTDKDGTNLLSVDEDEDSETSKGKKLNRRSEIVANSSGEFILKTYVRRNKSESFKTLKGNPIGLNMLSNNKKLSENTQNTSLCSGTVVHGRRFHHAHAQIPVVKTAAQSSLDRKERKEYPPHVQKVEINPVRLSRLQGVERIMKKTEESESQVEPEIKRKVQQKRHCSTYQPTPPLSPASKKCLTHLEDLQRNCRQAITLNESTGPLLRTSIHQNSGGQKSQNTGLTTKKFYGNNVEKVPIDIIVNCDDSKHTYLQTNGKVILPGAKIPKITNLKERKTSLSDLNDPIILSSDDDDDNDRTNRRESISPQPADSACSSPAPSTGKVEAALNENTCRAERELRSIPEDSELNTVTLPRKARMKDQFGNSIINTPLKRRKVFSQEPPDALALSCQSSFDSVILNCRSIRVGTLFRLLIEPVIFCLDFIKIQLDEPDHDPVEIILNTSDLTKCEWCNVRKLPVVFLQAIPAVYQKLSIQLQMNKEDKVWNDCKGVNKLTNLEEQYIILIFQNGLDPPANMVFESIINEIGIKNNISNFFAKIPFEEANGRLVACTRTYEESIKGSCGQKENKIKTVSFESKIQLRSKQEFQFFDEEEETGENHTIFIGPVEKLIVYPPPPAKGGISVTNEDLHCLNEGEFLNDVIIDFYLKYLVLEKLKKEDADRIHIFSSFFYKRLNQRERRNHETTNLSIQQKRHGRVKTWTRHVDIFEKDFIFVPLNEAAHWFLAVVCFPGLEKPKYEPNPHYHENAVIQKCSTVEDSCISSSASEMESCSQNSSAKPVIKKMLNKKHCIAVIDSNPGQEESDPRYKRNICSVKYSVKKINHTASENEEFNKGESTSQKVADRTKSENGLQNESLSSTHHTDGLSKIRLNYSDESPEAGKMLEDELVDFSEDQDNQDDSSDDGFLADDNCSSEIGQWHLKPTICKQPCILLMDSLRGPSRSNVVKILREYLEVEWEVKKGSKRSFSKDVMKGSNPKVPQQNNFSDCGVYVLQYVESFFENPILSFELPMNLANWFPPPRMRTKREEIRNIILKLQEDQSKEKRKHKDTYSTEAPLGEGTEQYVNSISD

The target of experiment [2] is T2, Apoptotic protease-activating factor 1 (Homo sapiens, UniProt O14727).
T2 sequence (O14727 whole entry): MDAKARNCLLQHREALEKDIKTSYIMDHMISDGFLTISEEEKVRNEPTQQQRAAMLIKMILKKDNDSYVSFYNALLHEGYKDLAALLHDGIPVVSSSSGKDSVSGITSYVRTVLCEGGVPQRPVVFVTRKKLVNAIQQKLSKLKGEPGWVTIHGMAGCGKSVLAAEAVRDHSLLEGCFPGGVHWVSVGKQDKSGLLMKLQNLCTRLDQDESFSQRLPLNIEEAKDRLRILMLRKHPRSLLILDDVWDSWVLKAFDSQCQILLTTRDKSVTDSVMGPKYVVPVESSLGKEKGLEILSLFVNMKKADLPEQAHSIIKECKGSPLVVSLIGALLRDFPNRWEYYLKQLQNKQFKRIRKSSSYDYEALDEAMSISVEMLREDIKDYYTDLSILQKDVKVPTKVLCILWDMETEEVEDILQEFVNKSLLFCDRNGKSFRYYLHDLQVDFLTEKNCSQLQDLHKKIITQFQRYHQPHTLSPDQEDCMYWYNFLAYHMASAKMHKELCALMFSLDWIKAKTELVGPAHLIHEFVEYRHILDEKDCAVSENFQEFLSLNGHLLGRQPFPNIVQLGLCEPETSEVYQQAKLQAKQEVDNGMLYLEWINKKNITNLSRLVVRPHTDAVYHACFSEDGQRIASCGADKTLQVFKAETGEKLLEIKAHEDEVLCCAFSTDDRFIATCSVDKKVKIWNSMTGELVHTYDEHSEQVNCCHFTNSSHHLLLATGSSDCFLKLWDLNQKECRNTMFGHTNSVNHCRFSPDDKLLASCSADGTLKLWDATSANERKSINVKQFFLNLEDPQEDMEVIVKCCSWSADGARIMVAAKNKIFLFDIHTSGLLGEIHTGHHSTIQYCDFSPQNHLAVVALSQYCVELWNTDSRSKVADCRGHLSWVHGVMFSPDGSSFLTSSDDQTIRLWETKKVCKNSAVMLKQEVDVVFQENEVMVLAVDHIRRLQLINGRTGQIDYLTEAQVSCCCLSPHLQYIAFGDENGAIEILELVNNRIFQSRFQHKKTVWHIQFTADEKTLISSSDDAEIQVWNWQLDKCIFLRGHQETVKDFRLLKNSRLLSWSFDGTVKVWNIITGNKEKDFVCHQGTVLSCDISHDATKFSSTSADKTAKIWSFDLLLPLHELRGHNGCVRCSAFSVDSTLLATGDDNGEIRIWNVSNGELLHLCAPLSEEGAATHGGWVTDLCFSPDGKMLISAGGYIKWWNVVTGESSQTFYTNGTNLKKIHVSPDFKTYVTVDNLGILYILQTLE

Experiment [3] deals with Vascular endothelial growth factor receptor 1 (Homo sapiens, UniProt P17948).
Sequence of Vascular endothelial growth factor receptor 1 (P17948 whole entry): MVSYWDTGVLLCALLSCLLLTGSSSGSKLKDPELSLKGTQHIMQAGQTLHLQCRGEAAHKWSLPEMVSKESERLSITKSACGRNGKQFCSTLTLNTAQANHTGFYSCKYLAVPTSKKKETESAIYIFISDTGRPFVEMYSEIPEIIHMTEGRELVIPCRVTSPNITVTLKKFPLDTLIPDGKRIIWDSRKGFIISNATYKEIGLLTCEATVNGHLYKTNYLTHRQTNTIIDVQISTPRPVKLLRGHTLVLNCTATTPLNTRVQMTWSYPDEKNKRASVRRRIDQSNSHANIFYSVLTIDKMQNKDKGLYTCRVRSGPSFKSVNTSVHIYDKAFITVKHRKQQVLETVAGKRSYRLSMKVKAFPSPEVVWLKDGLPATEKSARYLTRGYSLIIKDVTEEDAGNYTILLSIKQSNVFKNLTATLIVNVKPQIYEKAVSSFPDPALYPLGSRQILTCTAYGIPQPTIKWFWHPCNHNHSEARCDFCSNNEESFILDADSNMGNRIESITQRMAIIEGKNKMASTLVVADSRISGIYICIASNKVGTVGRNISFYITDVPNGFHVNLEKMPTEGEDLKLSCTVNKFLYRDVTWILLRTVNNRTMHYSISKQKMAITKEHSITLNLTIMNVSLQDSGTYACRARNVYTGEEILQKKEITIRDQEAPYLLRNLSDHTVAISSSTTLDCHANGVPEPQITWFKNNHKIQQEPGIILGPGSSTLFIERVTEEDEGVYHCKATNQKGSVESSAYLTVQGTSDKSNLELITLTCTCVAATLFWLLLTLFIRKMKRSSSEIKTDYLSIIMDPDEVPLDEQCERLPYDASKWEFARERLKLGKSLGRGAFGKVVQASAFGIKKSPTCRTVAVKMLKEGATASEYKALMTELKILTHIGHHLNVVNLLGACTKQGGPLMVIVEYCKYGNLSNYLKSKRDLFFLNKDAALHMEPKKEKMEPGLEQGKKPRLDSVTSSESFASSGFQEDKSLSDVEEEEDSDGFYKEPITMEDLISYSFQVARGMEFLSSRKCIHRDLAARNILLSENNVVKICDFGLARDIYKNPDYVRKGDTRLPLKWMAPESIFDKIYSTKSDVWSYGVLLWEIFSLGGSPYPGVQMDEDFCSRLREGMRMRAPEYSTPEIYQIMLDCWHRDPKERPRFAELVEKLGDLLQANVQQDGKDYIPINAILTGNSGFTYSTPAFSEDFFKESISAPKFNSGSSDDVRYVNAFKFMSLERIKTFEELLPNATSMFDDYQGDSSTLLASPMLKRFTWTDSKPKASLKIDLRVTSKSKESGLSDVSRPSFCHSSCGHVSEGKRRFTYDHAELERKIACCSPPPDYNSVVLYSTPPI
For experiment [4], the target named is Tyrosine-protein kinase Fer (Homo sapiens, UniProt P16591).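 Further: FER tested as one member of a kinome panel.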
Experiment [5] deals with Serine/threonine-protein kinase PLK3 (Homo sapiens, UniProt Q9H4B4).
Sequence of Serine/threonine-protein kinase PLK3 (Q9H4B4 whole entry): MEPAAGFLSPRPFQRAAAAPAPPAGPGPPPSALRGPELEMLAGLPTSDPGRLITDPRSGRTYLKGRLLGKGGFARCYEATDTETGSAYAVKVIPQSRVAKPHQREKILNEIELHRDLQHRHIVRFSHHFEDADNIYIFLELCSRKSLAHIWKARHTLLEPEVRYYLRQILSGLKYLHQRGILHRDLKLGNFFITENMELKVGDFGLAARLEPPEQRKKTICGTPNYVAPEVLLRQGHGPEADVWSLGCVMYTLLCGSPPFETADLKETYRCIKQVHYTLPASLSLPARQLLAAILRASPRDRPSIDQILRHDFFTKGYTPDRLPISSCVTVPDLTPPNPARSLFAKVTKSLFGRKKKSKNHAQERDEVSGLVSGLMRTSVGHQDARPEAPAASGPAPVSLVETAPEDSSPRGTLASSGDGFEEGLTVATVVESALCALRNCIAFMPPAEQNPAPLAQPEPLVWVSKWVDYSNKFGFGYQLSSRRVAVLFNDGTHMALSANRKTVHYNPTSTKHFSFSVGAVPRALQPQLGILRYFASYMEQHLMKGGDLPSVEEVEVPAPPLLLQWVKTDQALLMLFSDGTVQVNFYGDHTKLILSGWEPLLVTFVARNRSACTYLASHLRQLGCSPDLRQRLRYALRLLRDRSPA
In experiment [6] the target is Dual specificity tyrosine-phosphorylation-regulated kinase 4 (Homo sapiens, UniProt Q9NR20).
For experiment [7], the target named is Serine/threonine-protein kinase Chk2 (Homo sapiens, UniProt O96017).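 Further: CHEK2 entry within a kinome-wide screening panel.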
In experiment [8] the target is Rho-associated protein kinase 1 (Homo sapiens, UniProt Q13464).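 Further: measured within a broad kinome-wide panel profiling many kinases.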
The target in experiment [9] is Mitogen-activated protein kinase 8 (Homo sapiens, UniProt P45983).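 Further: value comes from one member of a kinome-wide kinase profiling panel.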
Experiment [10] concerns the target ALK tyrosine kinase receptor (Homo sapiens, UniProt Q9UM73).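 Further: ALK tested as one member of a kinase panel screen.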
In experiment [11] the target is Interleukin-1 receptor-associated kinase 4 (Homo sapiens, UniProt Q9NWZ3).
Sequence of Interleukin-1 receptor-associated kinase 4 (Q9NWZ3 whole entry): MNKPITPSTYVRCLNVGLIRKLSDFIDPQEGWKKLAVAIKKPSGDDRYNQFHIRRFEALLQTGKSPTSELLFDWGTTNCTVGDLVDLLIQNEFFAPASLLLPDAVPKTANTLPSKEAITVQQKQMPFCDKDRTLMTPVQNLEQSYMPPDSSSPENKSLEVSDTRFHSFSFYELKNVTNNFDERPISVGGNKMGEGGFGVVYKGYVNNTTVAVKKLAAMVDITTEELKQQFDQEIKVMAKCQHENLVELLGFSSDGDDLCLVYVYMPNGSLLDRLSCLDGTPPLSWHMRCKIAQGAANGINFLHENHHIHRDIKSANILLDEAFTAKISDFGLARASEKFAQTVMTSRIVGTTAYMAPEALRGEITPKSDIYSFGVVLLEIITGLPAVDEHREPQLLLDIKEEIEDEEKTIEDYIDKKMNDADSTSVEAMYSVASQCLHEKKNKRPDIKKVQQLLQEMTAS
The target in experiment [12] is Tyrosine-protein kinase Lyn (Homo sapiens, UniProt P07948).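 Further: lyn as one member of a kinase panel.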
Sequence of Tyrosine-protein kinase Lyn (P07948 whole entry): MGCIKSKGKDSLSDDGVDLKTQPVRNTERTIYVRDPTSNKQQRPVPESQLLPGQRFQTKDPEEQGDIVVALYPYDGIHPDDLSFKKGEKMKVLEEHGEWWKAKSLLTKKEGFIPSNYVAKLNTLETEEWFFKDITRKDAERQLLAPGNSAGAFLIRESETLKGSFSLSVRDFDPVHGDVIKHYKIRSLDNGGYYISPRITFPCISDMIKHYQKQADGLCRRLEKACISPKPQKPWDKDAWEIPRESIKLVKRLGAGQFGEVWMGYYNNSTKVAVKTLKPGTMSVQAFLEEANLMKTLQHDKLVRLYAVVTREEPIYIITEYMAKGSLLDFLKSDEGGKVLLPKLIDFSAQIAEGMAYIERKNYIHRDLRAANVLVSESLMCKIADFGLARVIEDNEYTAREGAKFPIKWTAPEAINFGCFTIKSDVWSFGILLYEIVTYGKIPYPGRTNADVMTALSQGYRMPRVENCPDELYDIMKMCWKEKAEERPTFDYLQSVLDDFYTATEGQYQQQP
The target in experiment [13] is Megakaryocyte-associated tyrosine-protein kinase (Homo sapiens, UniProt P42679).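 Further: affinity measured as one member of a kinase panel (Navigating the Kinome) against MATK.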
Sequence of Megakaryocyte-associated tyrosine-protein kinase (P42679 whole entry): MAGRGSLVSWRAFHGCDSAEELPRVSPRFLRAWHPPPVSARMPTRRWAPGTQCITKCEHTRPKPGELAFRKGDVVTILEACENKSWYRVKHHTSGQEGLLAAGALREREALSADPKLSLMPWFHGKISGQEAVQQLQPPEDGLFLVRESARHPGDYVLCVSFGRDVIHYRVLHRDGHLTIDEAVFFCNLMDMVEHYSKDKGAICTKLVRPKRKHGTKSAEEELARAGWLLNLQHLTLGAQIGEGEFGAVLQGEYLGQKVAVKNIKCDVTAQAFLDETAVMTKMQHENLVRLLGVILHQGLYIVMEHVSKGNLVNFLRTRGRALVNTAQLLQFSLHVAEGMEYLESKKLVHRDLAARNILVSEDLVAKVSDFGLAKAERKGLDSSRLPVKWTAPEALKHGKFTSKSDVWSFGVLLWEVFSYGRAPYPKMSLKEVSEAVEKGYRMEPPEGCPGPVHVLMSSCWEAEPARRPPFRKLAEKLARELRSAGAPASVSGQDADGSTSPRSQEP
Experiment [14] has as its target RAC-alpha serine/threonine-protein kinase (Homo sapiens, UniProt P31749).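 Further: AKT1 affinity measured as one member of a kinome-wide kinase profiling panel.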

The structures appear in SMILES notation. Calls of active or inactive are those of the source.

A word on the IC50: it is the concentration that gives 50% inhibition. Usually Ki stands for the dissociation constant of the complex between target and ligand, obtained from inhibition or displacement.

Sequence of ALK tyrosine kinase receptor (Q9UM73 whole entry): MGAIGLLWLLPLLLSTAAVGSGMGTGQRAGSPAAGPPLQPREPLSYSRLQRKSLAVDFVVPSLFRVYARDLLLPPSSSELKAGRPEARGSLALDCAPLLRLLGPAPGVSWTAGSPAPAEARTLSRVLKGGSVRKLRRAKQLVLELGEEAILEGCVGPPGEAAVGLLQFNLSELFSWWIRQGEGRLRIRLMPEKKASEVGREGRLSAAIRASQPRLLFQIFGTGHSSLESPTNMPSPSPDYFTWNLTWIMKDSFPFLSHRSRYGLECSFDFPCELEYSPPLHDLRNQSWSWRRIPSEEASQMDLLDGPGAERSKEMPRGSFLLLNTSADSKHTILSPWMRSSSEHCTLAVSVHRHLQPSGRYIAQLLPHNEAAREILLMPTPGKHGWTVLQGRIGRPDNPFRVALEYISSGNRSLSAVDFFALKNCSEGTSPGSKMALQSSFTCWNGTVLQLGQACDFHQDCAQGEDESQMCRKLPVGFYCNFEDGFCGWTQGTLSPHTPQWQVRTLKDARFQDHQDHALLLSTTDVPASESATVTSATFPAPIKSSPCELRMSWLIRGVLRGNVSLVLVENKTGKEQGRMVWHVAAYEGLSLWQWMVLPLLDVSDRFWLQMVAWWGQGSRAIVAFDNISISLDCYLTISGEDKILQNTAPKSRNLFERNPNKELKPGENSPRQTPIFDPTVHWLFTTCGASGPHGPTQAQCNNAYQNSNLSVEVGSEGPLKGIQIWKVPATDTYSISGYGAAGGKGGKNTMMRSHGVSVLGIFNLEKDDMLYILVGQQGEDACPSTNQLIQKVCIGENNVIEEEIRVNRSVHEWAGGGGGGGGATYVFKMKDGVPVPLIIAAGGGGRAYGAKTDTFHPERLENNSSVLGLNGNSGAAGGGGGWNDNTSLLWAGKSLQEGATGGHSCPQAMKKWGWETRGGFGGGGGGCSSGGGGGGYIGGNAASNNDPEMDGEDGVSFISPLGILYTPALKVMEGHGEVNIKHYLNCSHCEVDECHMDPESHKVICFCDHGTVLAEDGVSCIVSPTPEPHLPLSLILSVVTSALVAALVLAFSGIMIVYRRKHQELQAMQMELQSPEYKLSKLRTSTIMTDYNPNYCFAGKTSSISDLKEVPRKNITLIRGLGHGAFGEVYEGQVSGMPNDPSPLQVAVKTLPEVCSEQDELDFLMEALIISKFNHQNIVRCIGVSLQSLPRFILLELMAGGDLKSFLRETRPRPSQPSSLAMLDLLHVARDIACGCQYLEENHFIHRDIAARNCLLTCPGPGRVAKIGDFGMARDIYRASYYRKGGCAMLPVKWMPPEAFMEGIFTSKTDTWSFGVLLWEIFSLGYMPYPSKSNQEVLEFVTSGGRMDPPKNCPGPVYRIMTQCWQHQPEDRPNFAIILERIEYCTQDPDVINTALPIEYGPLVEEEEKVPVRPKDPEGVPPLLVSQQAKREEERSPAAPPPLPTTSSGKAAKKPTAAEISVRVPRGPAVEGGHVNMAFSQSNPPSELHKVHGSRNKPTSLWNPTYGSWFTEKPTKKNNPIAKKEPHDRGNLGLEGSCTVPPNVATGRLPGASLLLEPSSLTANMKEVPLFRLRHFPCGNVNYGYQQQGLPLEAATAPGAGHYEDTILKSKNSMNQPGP

`Cc1c(NC(=O)C(C)OC(=O)c2ccc([N+](=O)[O-])s2)c(=O)n(-c2ccccc2)n1C` (centres undefined): the IC50 in [1] was 7320 nM (active).

For `COc1cc(Br)c(C(=O)c2nccc3cc(OC)c(OC)cc23)cc1OC`, the IC50 in [2] is 7370 nM (active).

As to `CC(N)C1CCC(C(=O)Nc2ccnc3[nH]ccc23)CC1` (centres undefined), the Ki in [3] is > 2000 nM (inactive); in experiment [4] it was > 1580 nM (inactive); in experiment [5], > 7940 nM (inactive); in [6] it was > 7940 nM (inactive); in experiment [7], > 1580 nM (inactive); in experiment [8] it was 158 nM (active). Further, the Ki in [9] was > 3980 nM (inactive); in [10], 2000 nM (active); in [11], 2510 nM (active); in experiment [12] it was > 1580 nM (inactive); in experiment [13], > 2000 nM (inactive); in [14], 1260 nM (active).

The record behind these values is ChEMBL document CHEMBL1201862, “PubChem BioAssay data set” (2004).
